Results taken from patent publication US20200223837A1, “BENZOFURAN AMIDES AND HETEROAROMATIC ANALOGUES THEREOF FOR USE IN THERAPY” (European Molecular Biology Laboratory, priority 2017, published 2020).
Structures can show the parent of a compound that is named as a salt.

System: EGR1 promoter
Test: EGR1 reporter assay (luciferase) in genomically engineered HeLa cell line
Format: cell-based
Conditions: Homo sapiens; EGR1 reporter HeLa cells, luciferase activity after 24 hours with compound
Description: The compounds of the present invention can be characterized for their effect on expression of egr1 (early growth response protein 1) using an EGR1 reporter cell line.
The HeLa cell line was genetically modified to provide a simple, robust and highly reproducible cell-based assay reporting the activity of an endogenous EGR1 promoter. In brief, a construct encoding EGFP and luciferase proteins, separated by a self-cleaving P2A peptide was inserted, using CRISPR, immediately downstream (3′) to the promoter of endogenous EGR1. Upon treatment with compounds, cells express EGFP and luciferase from EGR1 promoter, which can be readily detected either in live cells using microscopy or cytometry, or through detection of luciferase activity in cell lysates.
To achieve stable genomic integration of an EGR1-promoter dual reporter, two plasmids were generated: one contained the reporter construct (eGFP-P2A-luciferase) flanked by homology arms that direct insertion into genomic DNA, by homologous recombination, of a break in genomic DNA generated by guide RNA targeted cleavage by Cas9 endonuclease. The gRNA expressing plasmid was based on px330 (56), into which a gRNA sequence that targets a break in gDNA close to the start codon of EGR1 was cloned. The left homology arm (encoding part of EGR1 promoter adjacent to its start codon) and right homology arm (encoding […] of start codon of EGR1) were cloned from gDNA using the following primers: […]
The present compounds can be tested, e.g. by using a HeLa cell line carrying an EGR1 reporter construct which allows for expression of luciferase and eGFP (enhanced GFP) controlled by the EGR1 promoter. For this reporter cells are seeded in the wells of a 384 well microtiter plate at a density of 2000 cells per well in 48 μl of DMEM supplemented with 4.5 g/l glucose, 2 mM glutamine and 10% FCS and are incubated for 24 hours at 37° C. with 5% CO2 and 95% humidity. Then, an eleven point 1:3 serial dilution of each test compound, from an initial concentration of 100 μM, is prepared in DMSO and the dilutions are added to the cells in a volume of 2 μl per well. The cells are incubated for a further 24 hours, after which the luciferase activity of each well is determined by addition of 25 μl of luciferase substrate reaction mixture (Britelite™ plus, Perkin Elmer) and measuring the bioluminescence light output (EnVision Xcite plate reader, PerkinElmer).
The compound of example 64 served as a positive control for this EGR1 reporter assay. The compound of example 64 had been identified in an initial high throughput screening campaign.

| EC50 [µM] | SMILES |
| --- | --- |
| 0.01 to 10 | Cc1ccc2c(CC(=O)Nc3nc(C)cs3)coc2c1 [Example 33, 2-(6-Methylbenzofuran-3-yl)-N-(4-methylthiazol-2-yl)acetamide] |
| 0.01 to 10 | COc1ccc2c(CC(=O)Nc3nc(-c4cccs4)cs3)coc2c1 [Example 37, 2-(6-Methoxybenzofuran-3-yl)-N-[4-(2-thienyl)thiazol-2-yl]acetamide] |
| 10 to 100 | COc1ccc2c(CC(=O)Nc3nc(-c4ccc(CNC(C)=O)o4)cs3)coc2c1 [Example 8, N-[4-[5-(Acetamidomethyl)-2-furyl]thiazol-2-yl]-2-(6-methoxybenzofuran-3-yl)acetamide] |
| 0.01 to 10 | Cc1ccc2c(CC(=O)Nc3nc(-c4ccncc4)cs3)coc2c1 [Example 31, 2-(6-Methylbenzofuran-3-yl)-N-[4-(4-pyridyl)thiazol-2-yl]acetamide] |
| 0.01 to 10 | CCc1ccc2c(CC(=O)Nc3nc(C)cs3)coc2c1 [Example 35, 2-(6-Ethylbenzofuran-3-yl)-N-(4-methylthiazol-2-yl)acetamide] |
| 10 to 100 | CCc1ccc2c(CC(=O)Nc3nc(-c4ccccn4)cs3)coc2c1 [Example 5, 2-(6-Ethylbenzofuran-3-yl)-N-[4-(2-pyridyl)thiazol-2-yl]acetamide] |
| 0.01 to 10 | COc1ccc2c(CC(=O)Nc3nc(-c4ccc5c(c4)OCO5)cs3)coc2c1 [Example 78, N-[4-(1,3-Benzodioxol-5-yl)thiazol-2-yl]-2-(6-methoxybenzofuran-3-yl)acetamide] |
| 0.01 to 10 | COc1ccc2c(CC(=O)Nc3nc(-c4ccccn4)cs3)coc2c1 [Example 26, 2-(6-Methoxybenzofuran-3-yl)-N-[4-(2-pyridyl)thiazol-2-yl]acetamide] |
| 10 to 100 | COc1ccc(OC)c(-c2csc(NC(=O)Cc3coc4cc(OC)ccc34)n2)c1 [Example 14, N-[4-(2,5-Dimethoxyphenyl)thiazol-2-yl]-2-(6-methoxybenzofuran-3-yl)acetamide] |
| 10 to 100 | COc1ccc(OC)c(-c2csc(NC(=O)Cc3coc4cc(C)ccc34)n2)c1 [Example 11, N-[4-(2,5-Dimethoxyphenyl)thiazol-2-yl]-2-(6-methylbenzofuran-3-yl)acetamide] |
| 0.01 to 10 | COc1ccc2c(CC(=O)Nc3nc(-c4ccncc4)cs3)coc2c1 [Example 25, 2-(6-Methoxybenzofuran-3-yl)-N-[4-(4-pyridyl)thiazol-2-yl]acetamide] |
| 10 to 100 | COc1ccc2c(CC(=O)Nc3nc(C)cs3)coc2c1 [Example 12, 2-(6-Methoxybenzofuran-3-yl)-N-(4-methylthiazol-2-yl)acetamide] |
| 10 to 100 | Cc1cc2occ(CC(=O)Nc3nc(-c4ccccn4)cs3)c2cc1C [Example 9, 2-(5,6-Dimethylbenzofuran-3-yl)-N-[4-(2-pyridyl)thiazol-2-yl]acetamide] |
| 0.01 to 10 | COc1ccc2c(CC(=O)Nc3nc(-c4ccc5c(c4)CCC(=O)N5)cs3)coc2c1 [Example 29, 2-(6-Methoxybenzofuran-3-yl)-N-[4-(2-oxo-3,4-dihydro-1H-quinolin-6-yl)thiazol-2-yl]acetamide] |
| 0.01 to 10 | COc1ccc2c(CC(=O)Nc3ncc(C)s3)coc2c1 [Example 43, 2-(6-Methoxybenzofuran-3-yl)-N-(5-methylthiazol-2-yl)acetamide] |
| 10 to 100 | COc1ccc2c(CC(=O)Nc3nccs3)coc2c1 [Example 2, 2-(6-Methoxybenzofuran-3-yl)-N-thiazol-2-yl-acetamide] |

The remaining lines, values behind:

| SMILES | EC50 [µM] |
| --- | --- |
| COCc1cnc(NC(=O)Cc2coc3c(C)c(C)ccc23)s1 [Example 87, 2-(6,7-Dimethylbenzofuran-3-yl)-N-[5-(methoxymethyl)thiazol-2-yl]acetamide] | 0.01 to 10 |
| O=C(Cc1coc2ccccc12)Nc1ncc(C(F)(F)F)s1 [Example 6, 2-(Benzofuran-3-yl)-N-[5-(trifluoromethyl)thiazol-2-yl]acetamide] | 10 to 100 |
| O=C(Cc1coc2ncccc12)Nc1ncc(C(F)(F)F)s1 [Example 106, 2-(Furo[2,3-b]pyridin-3-yl)-N-(5-(trifluoromethyl)thiazol-2-yl)acetamide] | 0.01 to 10 |
| N#Cc1cnc(NC(=O)Cc2coc3c(Cl)c(Cl)ccc23)s1 [Example 73, N-(5-Cyanothiazol-2-yl)-2-(6,7-dichlorobenzofuran-3-yl)acetamide] | 0.01 to 10 |
| COc1c(C)ccc2c(CC(=O)Nc3ncc(C)s3)coc12 [Example 86, 2-(7-Methoxy-6-methyl-benzofuran-3-yl)-N-(5-methylthiazol-2-yl)acetamide] | 0.01 to 10 |
| CC(C(=O)Nc1ncc(C(F)(F)F)s1)c1coc2cc(Cl)ccc12 (stereo not shown) [Example 66, 2-(6-Chlorobenzofuran-3-yl)-N-[5-(trifluoromethyl)thiazol-2-yl]propanamide] | 0.01 to 10 |
| Cc1ccc2c(CC(=O)Nc3ncc(C)s3)coc2c1 [Example 48, 2-(6-Methylbenzofuran-3-yl)-N-(5-methylthiazol-2-yl)acetamide] | 0.01 to 10 |
| COc1ccc2c(CC(=O)Nc3ncc(C)s3)coc2c1C [Example 79, 2-(6-Methoxy-7-methyl-benzofuran-3-yl)-N-(5-methylthiazol-2-yl)acetamide] | 0.01 to 10 |
| CCc1ccc2c(CC(=O)Nc3nc(-c4ccc(CNC(C)=O)cc4)cs3)coc2c1 [Example 30, N-[4-[4-(Acetamidomethyl)phenyl]thiazol-2-yl]-2-(6-ethylbenzofuran-3-yl)acetamide] | 0.01 to 10 |
| CCOC(=O)c1csc(NC(=O)Cc2coc3cc(C)ccc23)n1 [Example 13, Ethyl 2-[[2-(6-methylbenzofuran-3-yl)acetyl]amino]thiazole-4-carboxylate] | 10 to 100 |
| Cc1cnc(NC(=O)Cc2coc3c(Cl)c(C)ccc23)s1 [Example 90, 2-(7-Chloro-6-methyl-benzofuran-3-yl)-N-(5-methylthiazol-2-yl)acetamide] | 0.01 to 10 |
| COc1ccc2nc(NC(=O)Cc3coc4cc5c(cc34)CCC5)sc2c1 [Example 32, 2-(6,7-Dihydro-5H-cyclopenta[f]benzofuran-3-yl)-N-(6-methoxy-1,3-benzothiazol-2-yl)acetamide] | 0.01 to 10 |
| NCc1ccc(-c2csc(NC(=O)Cc3coc4cc5c(cc34)CCC5)n2)o1 [Example 100, hydrochloride salt] | 0.01 to 10 |
| Cc1ccc2occ(CC(=O)Nc3ncc(C(F)(F)F)s3)c2c1 [Example 4, 2-(5-Methylbenzofuran-3-yl)-N-[5-(trifluoromethyl)thiazol-2-yl]acetamide] | 10 to 100 |
| Cc1ccc2c(CCC(=O)Nc3ncc(C(F)(F)F)s3)coc2c1C [Example 61, 3-(6,7-Dimethylbenzofuran-3-yl)-N-[5-(trifluoromethyl)thiazol-2-yl]propanamide] | 0.01 to 10 |
| Cc1cnc(NC(=O)Cc2coc3c(Cl)c(Cl)ccc23)s1 [Example 75, 2-(6,7-Dichlorobenzofuran-3-yl)-N-(5-methylthiazol-2-yl)acetamide] | 0.01 to 10 |
| CNC(=O)c1nc(NC(=O)Cc2coc3c(C)c(C)ccc23)sc1C(F)(F)F [Example 103, 2-(2-(6,7-dimethylbenzofuran-3-yl)acetamido)-N-methyl-5-(trifluoromethyl)thiazole-4-carboxamide] | 10 to 100 |
| Cc1cnc(NC(=O)Cc2coc3c(C)c(Cl)ccc23)s1 [Example 92, 2-(6-Chloro-7-methyl-benzofuran-3-yl)-N-(5-methylthiazol-2-yl)acetamide] | 0.01 to 10 |
| Cc1cnc(NC(=O)Cc2coc3c(C)c(C)ccc23)s1 [Example 88, 2-(6,7-Dimethylbenzofuran-3-yl)-N-(5-methylthiazol-2-yl)acetamide] | 0.01 to 10 |
| COCc1cnc(NC(=O)Cc2coc3c(Cl)c(C)ccc23)s1 [Example 89, 2-(7-Chloro-6-methyl-benzofuran-3-yl)-N-[5-(methoxymethyl)thiazol-2-yl]acetamide] | 0.01 to 10 |
| O=C(Cc1coc2cc3c(cc12)CCC3)Nc1ncc(C(F)(F)F)s1 [Example 63, 2-(6,7-Dihydro-5H-cyclopenta[f]benzofuran-3-yl)-N-[5-(trifluoromethyl)thiazol-2-yl]acetamide] | 0.01 to 10 |
| COC(=O)c1cnc(NC(=O)Cc2coc3c(C)c(C)ccc23)s1 [Example 47, Methyl 2-[[2-(6,7-dimethylbenzofuran-3-yl)acetyl]amino]thiazole-5-carboxylate] | 0.01 to 10 |
| Cc1ccc2c(CC(=O)Nc3ncc(C(C)C)s3)coc2c1C [Example 95, 2-(6,7-Dimethylbenzofuran-3-yl)-N-(5-isopropylthiazol-2-yl)acetamide] | 0.01 to 10 |
| Cc1c[nH]c(NC(=O)Cc2coc3cc4c(cc23)CCC4)n1 [Example 23, 2-(6,7-dihydro-5H-cyclopenta[f]benzofuran-3-yl)-N-(5-methyl-1H-imidazol-2-yl)acetamide] | 0.01 to 10 |
